{"source": "paper PMC7770833", "about": "“Design, Synthesis, and Biological Evaluation of a Series of Oxazolone Carboxamides as a Novel Class of Acid Ceramidase Inhibitors” (Journal of Medicinal Chemistry, 2020)", "key": {"hAC [1]": {"biological_target": "T1, hAC (Homo sapiens, UniProt Q13510)", "T1 sequence (Q13510 22-395)": "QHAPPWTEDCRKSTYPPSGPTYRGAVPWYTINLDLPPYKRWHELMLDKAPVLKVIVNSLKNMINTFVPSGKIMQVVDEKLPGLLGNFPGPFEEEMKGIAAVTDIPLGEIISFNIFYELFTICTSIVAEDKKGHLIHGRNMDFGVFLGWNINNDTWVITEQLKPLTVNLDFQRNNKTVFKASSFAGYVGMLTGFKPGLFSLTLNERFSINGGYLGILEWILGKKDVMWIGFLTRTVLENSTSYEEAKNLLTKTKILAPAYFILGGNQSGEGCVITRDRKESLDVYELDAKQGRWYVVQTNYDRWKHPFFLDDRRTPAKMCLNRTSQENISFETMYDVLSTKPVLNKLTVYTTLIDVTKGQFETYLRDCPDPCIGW", "assay": "Fluorogenic hAC assay (hAC-enriched HEK293 lysate)", "assay_type": "biochemical", "set-up": "expressed in transfected cells; lysosome-enriched lysate", "details": "for hAC inhibition, result in words: concentrations tested 1 and 10 μM where stated; for hAC, IC50 (micromicrolar): supplementary CSV", "excerpt": "HEK293 cells stably expressing hAC (HEK293-hAC) were generated in our laboratory using a protocol, as previously described.[30] Briefly, hAC (variant 1 coding sequence, NM_177924) cDNA was purchased from Open Biosystems (clone ID 3923451) and subcloned in the mammalian expression vector pCDNA3.1, containing the neomycin resistance gene. HEK293 cells were transfected with the hAC-pCDNA3.1 construct using a JetPEI reagent (Polyplus Transfection, Illkirch-Graffenstaden, France) and following the manufacturer’s instructions. A stable cell line was generated by selection with G418 (1 mg/mL), and cell clones were derived by limited dilution plating. HEK293-hAC were grown in Dulbecco’s modified Eagle medium (DMEM) containing 10% fetal bovine serum (FBS), 1% glutamine, 1 mM sodium pyruvate, and 500 μg/mL G418. Cells were harvested and pellets were stored at −80 °C until lysosomal-enriched lysate preparation. Cells were suspended in 20 mM Tris HCl (pH 7.5) with 0.32 M sucrose, sonicated, and centrifuged at 800 × g for 30 min at 4 °C. Supernatants were then centrifuged at 12 000 × g for 30 min at 4 °C. Pellets were re-suspended in PBS (pH 7.4) and subjected to three freeze–thaw cycles at −80 °C. The suspension was finally centrifuged at 105 000 × g for 1 h at 4 °C, and protein concentration was measured in the supernatant with a bicinchoninic acid based protein assay. This hAC-enriched preparation allowed us to further optimize the enzymatic assay and to use small amounts of lysate (2 μg/well) at the 5 μM substrate (Rbm14-12) around its KM (KM = 5.0 μM).\nThe assay was performed in Optiplate 96-wells black plates, with each reaction well containing a mixture of 25 mM NaOAc buffer (pH 4.5) and a fixed amount of protein (2 μg) in a volume of 85 μL. After 10 min of pre-incubation with the test compounds (diluted 20× from DMSO stock solutions at different concentrations), the fluorogenic probe was added (diluted 40× from EtOH stock solution, final concentration 5 μM). After 3 h incubation at 37 °C, reactions were stopped with 50 μL of MeOH and 100 μL of a 2.5 mg/mL NaIO4 fresh solution in 100 mM glycine/NaOH buffer (pH 10.6). The plates were further incubated for 2 h at 37 °C in the dark and fluorescence intensities were measured at excitation/emission wavelengths of 355/460 nm. Negative control samples consisted of the same incubation mixture in the absence of protein-enriched extracts. Data were plotted as a function of compound concentrations. IC50 values were calculated by nonlinear regression analysis using GraphPad Prism 5 (GraphPad Software Inc., CA, USA) applying a standard slope curve fitting. The reported IC50 values are the mean of at least three independent experiments performed in three technical replicates."}, "rat AC (rAC)": {"system": "rat AC (rAC)", "details": "cited from earlier work"}, "hAC [2]": {"system": "hAC", "details": "cited from earlier work"}, "hAC [3]": {"biological_target": "T1, hAC", "assay": "Michaelis–Menten analysis of hAC", "assay_type": "biochemical", "set-up": "expressed in transfected cells; lysosome-enriched lysate", "experimental": "Assay conditions for the kinetic studies were the same as those described for the fluorogenic hAC assay. The enzyme-enriched lysate (2 μg) was incubated with the following concentrations of substrate Rbm14-12: 0.25, 0.5, 1, 2.5, 5, 10, 12.5, 15 μM. Compound 12a was used at a final concentration of 25 and 100 nM. Initial velocities (V0) were determined and automatically fitted to the Michaelis–Menten equation to obtain kinetic parameters (KM and Vmax). The graph is representative of two independent experiments, each performed in three technical replicates. Graphs and data analysis were performed using GraphPad Prism 5 software (GraphPad Software Inc., CA, USA)."}}, "note": "Where a name gives a salt, the structure may show the parent alone."}
{"molecule": "CCC(C)NC(=O)n1cc(-c2ccccc2)oc1=O", "note": "(racemic) [Compound 12f, (±) 2-Oxo-5-phenyl-N-s-butyl-oxazole-3-carboxamide]", "values": [{"measurement": "hAC inhibition, result in words", "setting": "hAC [1]", "value": "not active up to 10 μM"}, {"measurement": "hAC, IC50 (micromicrolar)", "setting": "hAC [1]", "value": "not active up to 10 micromolar"}]}
{"molecule": "CCCCCCNC(=O)n1cc(Cl)c(=O)[nH]c1=O", "note": "[Compound 1a]", "values": [{"measurement": "IC50", "setting": "rat AC (rAC)", "value": 67, "unit": "nM"}]}
{"molecule": "CCCCCCNC(=O)n1cc(C(F)(F)F)c(=O)[nH]c1=O", "note": "[Compound 1b]", "values": [{"measurement": "IC50", "setting": "rat AC (rAC)", "value": 12, "unit": "nM"}]}
{"molecule": "CCCCCCNC(=O)n1cc(F)c(=O)n(C(=O)OCC(C)C)c1=O", "note": "[Compound 1c]", "values": [{"measurement": "IC50", "setting": "rat AC (rAC)", "value": 16, "unit": "nM"}]}
{"molecule": "O=C(NCCCCc1ccccc1)n1cnc2ccccc21", "note": "[Compound 3a]", "values": [{"measurement": "IC50", "setting": "hAC [2]", "value": 2.5, "unit": "nM"}]}
{"molecule": "COc1nc2ccccc2n1C(=O)NCCCCc1ccccc1", "note": "[Compound 3b]", "values": [{"measurement": "IC50", "setting": "hAC [2]", "value": 13.9, "unit": "nM"}]}
{"molecule": "O=C(NCc1ccccc1)n1cnc2ccccc21", "note": "[Compound 3c]", "values": [{"measurement": "IC50", "setting": "hAC [2]", "value": 22.5, "unit": "nM"}]}
{"molecule": "Cc1ccc(CNC(=O)n2cnc3ccccc32)cc1", "note": "[Compound 3d]", "values": [{"measurement": "IC50", "setting": "hAC [2]", "value": 14.8, "unit": "nM"}]}
{"molecule": "O=C(NCCCCc1ccccc1)n1c(=O)oc2ccccc21", "note": "[Compound 4a]", "values": [{"measurement": "IC50", "setting": "hAC [2]", "value": 64, "unit": "nM"}]}
{"molecule": "O=C(NCCCCc1ccccc1)n1c(=O)oc2cc(-c3ccc(F)cc3)ccc21", "note": "[Compound 4b]", "values": [{"measurement": "IC50", "setting": "hAC [2]", "value": 79, "unit": "nM"}]}
{"molecule": "O=C(NCCCCc1ccccc1)n1c(=O)oc2cc(Cl)ccc21", "note": "[Compound 4c]", "values": [{"measurement": "IC50", "setting": "hAC [2]", "value": 33, "unit": "nM"}]}
{"molecule": "CC(C)CNC(=O)n1c(=O)oc2cc(C3CCN(C)CC3)ccc21", "note": "[Compound 4d]", "values": [{"measurement": "IC50", "setting": "hAC [2]", "value": 166, "unit": "nM"}]}
{"molecule": "O=C(NCCCCc1ccccc1)n1c(-c2ccccc2)coc1=O", "note": "[Compound 8a, 2-Oxo-4-phenyl-N-(4-phenylbutyl)oxazole-3-carboxamide]", "values": [{"measurement": "IC50", "setting": "hAC [1]; fluorogenic substrate Rbm14-12 5 μM, pH 4.5, mean of at least three experiments, read-out: hAC IC50 (μM)±SD", "value": "0.007 ± 0.001", "unit": "µM"}]}
{"molecule": "O=c1[nH]cc(-c2ccccc2)o1", "note": "[Compound 11a, 5-Phenyl-3H-oxazol-2-one]", "values": [{"measurement": "hAC, IC50 (micromicrolar)", "setting": "hAC [1]", "value": "not active up to 10 micromolar"}]}
{"molecule": "O=C(NCCCCc1ccccc1)n1cc(-c2ccccc2)oc1=O", "note": "[Compound 12a, 2-Oxo-5-phenyl-N-(4-phenylbutyl)oxazole-3-carboxamide]", "values": [{"measurement": "hAC Vmax", "setting": "hAC [3]; 12a 25 nM", "value": 18201, "unit": "M/h"}, {"measurement": "hAC Vmax", "setting": "hAC [3]; 12a 100 nM", "value": 12016, "unit": "M/h"}, {"measurement": "effect on Michaelis–Menten constant (KM)", "setting": "hAC [3]; hAC-enriched lysates, in words", "value": "without influencing"}, {"measurement": "effect on maximal catalytic velocity of AC (Vmax)", "setting": "hAC [3]; hAC-enriched lysates, in words", "value": "concentration-dependent reduction"}]}
{"molecule": "COCCCNC(=O)n1cc(-c2ccccc2)oc1=O", "note": "[Compound 12d, N-(3-Methoxypropyl)-2-oxo-5-phenyl-oxazole-3-carboxamide]", "values": [{"measurement": "hAC inhibition, result in words", "setting": "hAC [1]", "value": "complete loss in potency"}, {"measurement": "hAC, IC50 (micromicrolar)", "setting": "hAC [1]", "value": "not active up to 10 micromolar"}]}
{"molecule": "O=C(Nc1ccccc1)n1cc(-c2ccccc2)oc1=O", "note": "[Compound 12g, 2-Oxo-N,5-diphenyl-oxazole-3-carboxamide]", "values": [{"measurement": "hAC, IC50 (micromicrolar)", "setting": "hAC [1]", "value": "not active up to 10 micromolar"}]}
{"molecule": "O=C(NCCCCc1ccccc1)n1cc(-c2ccc(F)cc2)oc1=O", "note": "[Compound 12j, 5-(4-Fluorophenyl)-2-oxo-N-(4-phenylbutyl)oxazole-3-carboxamide]", "values": [{"measurement": "hAC IC50 (μM)±SD", "setting": "hAC [1]; fluorogenic substrate Rbm14-12 5 μM, pH 4.5, mean of at least three experiments", "value": "submicromolar"}]}
{"molecule": "CN(CCCCc1ccccc1)C(=O)n1cc(-c2ccccc2)oc1=O", "note": "[Compound 13a, N-Methyl-2-oxo-5-phenyl-N-(4-phenylbutyl)oxazole-3-carboxamide]", "values": [{"measurement": "hAC, IC50 (micromicrolar)", "setting": "hAC [1]", "value": "not active up to 10 micromolar"}]}
{"molecule": "O=C(OCCCCc1ccccc1)n1cc(-c2ccccc2)oc1=O", "note": "[Compound 13b, 4-Phenylbutyl-2-oxo-5-phenyl-oxazole-3-carboxylate]", "values": [{"measurement": "hAC, IC50 (micromicrolar)", "setting": "hAC [1]", "value": "not active up to 10 micromolar"}]}
{"molecule": "O=C(CCCCCc1ccccc1)n1cc(-c2ccccc2)oc1=O", "note": "[Compound 13c, 5-Phenyl-3-(6-phenylhexanoyl)oxazol-2-one]", "values": [{"measurement": "hAC, IC50 (micromicrolar)", "setting": "hAC [1]", "value": "not active up to 10 micromolar"}]}
{"molecule": "O=C(NCCCCc1ccccc1)N1C(=O)OC[C@@H]1c1ccccc1", "note": "[Compound 15a, (4S)-(+)-2-Oxo-4-phenyl-N-(4-phenylbutyl)oxazolidine-3-carboxamide]", "values": [{"measurement": "hAC, IC50 (micromicrolar)", "setting": "hAC [1]", "value": "not active up to 10 micromolar"}]}
{"molecule": "O=C(NCCCCc1ccccc1)N1C(=O)OC[C@H]1c1ccccc1", "note": "[Compound 15b, (4R)-(−)-2-Oxo-4-phenyl-N-(4-phenylbutyl)oxazolidine-3-carboxamide]", "values": [{"measurement": "hAC, IC50 (micromicrolar)", "setting": "hAC [1]", "value": "not active up to 10 micromolar"}]}
{"molecule": "O=C(NCCCCc1ccccc1)N1C[C@H](c2ccccc2)OC1=O", "note": "[Compound 18a, (5S)-(−)-2-Oxo-5-phenyl-N-(4-phenylbutyl)oxazolidine-3-carboxamide]", "values": [{"measurement": "hAC, IC50 (micromicrolar)", "setting": "hAC [1]", "value": "not active up to 10 micromolar"}]}
{"molecule": "O=C(NCCCCc1ccccc1)N1C[C@@H](c2ccccc2)OC1=O", "note": "[Compound 18b, (5R)-(+)-2-Oxo-5-phenyl-N-(4-phenylbutyl)oxazolidine-3-carboxamide]", "values": [{"measurement": "hAC, IC50 (micromicrolar)", "setting": "hAC [1]", "value": "not active up to 10 micromolar"}]}
{"molecule": "CC(C)CNC(=O)n1cc(-c2ccc(F)c(C3CCN(C)CC3)c2)oc1=O", "note": "[Compound 25f, 5-[4-Fluoro-3-(1-methyl-4-piperidyl)phenyl]-N-isobutyl-2-oxo-oxazole-3-carboxamide]", "values": [{"measurement": "hAC inhibition, result in words", "setting": "hAC [1]", "value": "complete loss in potency"}, {"measurement": "hAC, IC50 (micromicrolar)", "setting": "hAC [1]", "value": "not active up to 10 micromolar"}]}
{"molecule": "CN1CCC(c2cc(F)ccc2-c2c[nH]c(=O)o2)CC1", "note": "[Compound 31c, 5-[4-Fluoro-2-(1-methyl-4-piperidyl)phenyl]-3H-oxazol-2-one]", "values": [{"measurement": "hAC, IC50 (micromicrolar)", "setting": "hAC [1]", "value": "not active up to 10 micromolar"}]}
{"molecule": "CC(C)CNC(=O)n1cc(-c2ccc(F)cc2C2CCN(C)CC2)oc1=O", "note": "[Compound 32c, 5-[4-Fluoro-2-(1-methyl-4-piperidyl)phenyl]-N-isobutyl-2-oxo-oxazole-3-carboxamide Hydrochloride]", "values": [{"measurement": "hAC inhibition, result in words", "setting": "hAC [1]", "value": "complete loss in potency"}, {"measurement": "hAC, IC50 (micromicrolar)", "setting": "hAC [1]", "value": "not active up to 10 micromolar"}]}
{"molecule": "CCCCCCNC(=O)n1cc(F)c(=O)[nH]c1=O", "note": "[carmofur]", "values": [{"measurement": "IC50", "setting": "rat AC (rAC)", "value": 29, "unit": "nM"}]}
